Source: patent US20230026856A1, “HETEROCYCLIC COMPOUNDS AND METHODS OF USE THEREOF” (SPARCBIO LLC, priority 2020, published 2023)

What was measured:
[1] = target: KRAS G12C protein (Homo sapiens, UniProt P01116, G12C); assay: Nucleotide exchange assay, Method III (TR-FRET, association of KRAS G12C with Raf-RBD, SOS1-mediated exchange); type: biochemical; conditions: overnight (18 hr) incubation with GDP-bound KRAS G12C
Description: Method III. Inhibition of SOS1-mediated exchange of GDP for GTP on the KRAS G12C protein was measured in a biochemical assay that monitors association of KRAS G12C protein with the Ras-binding domain of Raf (Raf-RBD), where the association is coupled to exchange of GDP to GTP on the KRAS G12C protein. The assay was performed at WuXi AppTec (Shanghai, China). Compounds were serially diluted in 3-fold dilutions to 11 concentrations and spotted into the wells of an assay plate in a total volume of 150 nL DMSO per well. A 2× enzyme mix was prepared by diluting GDP-bound, His-tagged KRAS G12C to 25 nM in assay buffer. 10 μL/well of 2× enzyme mix was added to all wells, and the plate was sealed and incubated overnight (18 hr) at 23° C. 4×SOS1/GDP and 4×SOS1/GTP were prepared in assay buffer. 5 μL/well of 4×SOS1/GDP mix was added to negative control wells, 5 μL/well of 4×SOS1/GTP mix was added to the remaining wells, and the plate was further incubated at 23° C. for 1 hr. Finally, FLAG-tagged Raf-RBD is added to the reaction mixture along with a pair of FRET donor- and acceptor-conjugated antibodies specific for the FLAG-tagged Raf-RBD and His-tagged KRAS G12C proteins. A 4× Raf-RBD/Tb-anti-FLAG/D2-anti-His mix was prepared in assay buffer, and 5 μL/well of the mix was added to all wells, followed by incubation at room temperature for 2 hr. The TR-FRET signals, which increase with association of KRAS G12C and Raf-RBD, were measured on a Perkin Elmer Envision 2104 plate reader, and data were analyzed by non-linear regression to obtain IC50 values for inhibition by compounds. Table 2 includes results of the assay of Method III. ‘+++’ indicates IC50 values ≤300 nM, ‘++’ indicates IC50 values between 300 nM-3 μM, and ‘+’ indicates IC50 values ≥3 μM.

[2] = system: NCI-H358 cells; assay: 3D cell proliferation assay (Cell Titer-Glo 3D); type: cell-based; conditions: Homo sapiens, NCI-H358, 168 h, NCI-H358, 3D (ultra-low attachment); 7 days
Description: NCI-H358 cells (ATCC® CRL-5807™) were plated in a 384-well Black/Clear Round Bottom Ultra-Low Attachment Microplate (Corning) in medium (RPMI-1640+10% FBS) at a density of 1000 cells in 50 μL per well, then incubated overnight at 37° C. and 5% CO2. Cells were treated with test compounds at 9 concentrations within a specified concentration range (e.g., 0.5 nM-10 μM) for generation of dose response curves. Test compounds were prepared by 1:3 serial dilution in DMSO from a specified starting concentration (e.g., 20 μM, 2 μM or 0.2 μM) and then added to wells of the assay plate in a total volume of 150 nL DMSO. The cells were further incubated at 37° C. and 5% CO2 for 7 days. Cell viability was assessed by adding 40 μL of Cell Titer-Glo® 3D reagent (Cat. No.: G9683, Promega) to each well and reading luminescence after mixing and incubation of the samples. The IC50 value of each test compound was calculated with XLFit curve fitting software.

Sequence of KRAS G12C protein (P01116 1-188 isoform P01116-2 G12C): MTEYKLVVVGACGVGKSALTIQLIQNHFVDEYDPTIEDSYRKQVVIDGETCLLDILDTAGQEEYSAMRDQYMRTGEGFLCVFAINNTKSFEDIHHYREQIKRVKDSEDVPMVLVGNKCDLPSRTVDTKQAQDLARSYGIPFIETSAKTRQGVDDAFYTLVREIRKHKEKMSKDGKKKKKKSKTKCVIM

Structure (SMILES) | IC50 [1] [nM] | IC50 [2] [nM]
C=CC(=O)N1CCN(c2c(C(=O)NC)c(=O)n(-c3c(C)ccnc3C(C)C)c3nc(-c4c(O)cccc4F)c(F)cc23)[C@@H](C)C1 (single isomer, unassigned) [76 (Isomer A)] | 300 to 3000 | 100 to 2000
C=CC(=O)N1CCN(c2c(C(=O)NC)c(=O)n(-c3c(C)ccnc3C(C)C)c3nc(-c4c(O)cccc4F)c(F)cc23)C[C@@H]1CC#N (single isomer, unassigned) [80 (Isomer A)] | ≤ 300 | 100 to 2000
C=CC(=O)N1CCN(c2c(C(=O)NC)c(=O)n(-c3c(C)ccnc3C(C)C)c3nc(-c4c(O)cccc4F)c(F)cc23)C[C@H]1C (single isomer, unassigned) [82 (Isomer A)] | ≤ 300 | 100 to 2000
C=CC(=O)N1CCN(c2c(C(=O)NC)c(=O)n(-c3c(C)ccnc3C(C)C)c3nc(-c4c(O)cccc4F)c(F)cc23)CC1 (single isomer, unassigned) [84 (Isomer A), 4-(4-acryloylpiperazin-1-yl)-6-fluoro-7-(2-fluoro-6-hydroxyphenyl)-1-(2-isopropyl-4-methylpyridin-3-yl)-N-methyl-2-oxo-1,2-dihydro-1,8-naphthyridine-3-carboxamide] | ≤ 300 | 100 to 2000
C=CC(=O)N1CCN(c2c(S(C)(=O)=O)c(=O)n(-c3c(C)ccnc3C(C)C)c3nc(-c4c(O)cccc4F)c(F)cc23)[C@@H](C)C1 (single isomer, unassigned) [131 (Isomer A)] | 300 to 3000 | 100 to 2000
C=CC(=O)N1CCN(c2c(S(C)(=O)=O)c(=O)n(-c3c(C)ccnc3C(C)C)c3nc(-c4c(O)cccc4F)c(F)cc23)C[C@@H]1CC#N (single isomer, unassigned) [135 (Isomer B)] | 300 to 3000 | 100 to 2000
C=CC(=O)N1CCN(c2c(S(C)(=O)=O)c(=O)n(-c3c(C)ccnc3C(C)C)c3c(F)c(-c4c(O)cccc4F)c(Cl)cc23)CC1 (single isomer, unassigned) [176 (Isomer D), 4-(4-acryloylpiperazin-1-yl)-6-chloro-8-fluoro-7-(2-fluoro-6-hydroxyphenyl)-1-(2-isopropyl-4-methylpyridin-3-yl)-3-(methylsulfonyl)quinolin-2(1H)-one] | ≤ 300 | ≤ 100
C=CC(=O)N1CCN(c2c(S(C)(=O)=O)c(=O)n(-c3c(C)ccnc3C(C)C)c3nc(-c4cccc5sc(N)nc45)c(F)cc23)C[C@H]1C (single isomer, unassigned) [249 (Isomer B)] | 300 to 3000 | 
C=CC(=O)N1CCN(c2c(S(C)(=O)=O)c(=O)n(-c3c(C)ccnc3C(C)C)c3nc(-c4cccc5sc(N)nc45)c(F)cc23)CC1 (single isomer, unassigned) [250 (Isomer B), 4-(4-acryloylpiperazin-1-yl)-7-(2-aminobenzo[d]thiazol-4-yl)-6-fluoro-1-(2-isopropyl-4-methylpyridin-3-yl)-3-(methylsulfonyl)-1,8-naphthyridin-2(1H)-one] | 300 to 3000 | 
C=CC(=O)N1CCN(c2c(S(C)(=O)=O)c(=O)n(-c3c(C)ccnc3C(C)C)c3c(F)c(-c4cccc5sc(N)nc45)c(Cl)cc23)CC1 (single isomer, unassigned) [252 (Isomer A), 4-(4-acryloylpiperazin-1-yl)-7-(2-aminobenzo[d]thiazol-4-yl)-6-chloro-8-fluoro-1-(2-isopropyl-4-methylpyridin-3-yl)-3-(methylsulfonyl)quinolin-2(1H)-one] | ≤ 300 | 
C=CC(=O)N1CCN(c2c(S(C)(=O)=O)c(=O)n(-c3c(C)ccnc3C(C)C)c3c(F)c(-c4cccc5sc(N)nc45)c(Cl)cc23)CC1 (single isomer, unassigned) [252 (Isomer B), 4-(4-acryloylpiperazin-1-yl)-7-(2-aminobenzo[d]thiazol-4-yl)-6-chloro-8-fluoro-1-(2-isopropyl-4-methylpyridin-3-yl)-3-(methylsulfonyl)quinolin-2(1H)-one] | ≤ 300 | 
C=CC(=O)N1CCN(c2c(S(C)(=O)=O)c(=O)n(-c3c(C)ccnc3C(C)C)c3c(F)c(-c4cccc5sc(N)nc45)c(Cl)cc23)CC1 (single isomer, unassigned) [252 (Isomer C), 4-(4-acryloylpiperazin-1-yl)-7-(2-aminobenzo[d]thiazol-4-yl)-6-chloro-8-fluoro-1-(2-isopropyl-4-methylpyridin-3-yl)-3-(methylsulfonyl)quinolin-2(1H)-one] | 300 to 3000 | 
C=CC(=O)N1CCN(c2c(S(C)(=O)=O)c(=O)n(-c3c(C)ccnc3C(C)C)c3c(F)c(-c4cccc5sc(N)nc45)c(Cl)cc23)CC1 (single isomer, unassigned) [252 (Isomer D), 4-(4-acryloylpiperazin-1-yl)-7-(2-aminobenzo[d]thiazol-4-yl)-6-chloro-8-fluoro-1-(2-isopropyl-4-methylpyridin-3-yl)-3-(methylsulfonyl)quinolin-2(1H)-one] | ≤ 300 | ≤ 100
C=CC(=O)N1CCN(c2c(C(=O)NC)c(=O)n(-c3c(C)ccnc3C(C)C)c3nc(-c4cccc5sc(N)nc45)c(F)cc23)C[C@H]1C (single isomer, unassigned) [253 (Isomer A)] | ≤ 300 | 
C=CC(=O)N1CCN(c2c(C(=O)NC)c(=O)n(-c3c(C)ccnc3C(C)C)c3nc(-c4cccc5sc(N)nc45)c(F)cc23)CC1 (single isomer, unassigned) [254 (Isomer B), 4-(4-acryloylpiperazin-1-yl)-7-(2-aminobenzo[d]thiazol-4-yl)-6-fluoro-1-(2-isopropyl-4-methylpyridin-3-yl)-N-methyl-2-oxo-1,2-dihydro-1,8-naphthyridine-3-carboxamide] | ≤ 300 | 
C=CC(=O)N1CCC(n2c(=O)c(=O)n(-c3c(C)ccnc3C(C)C)c3nc(-c4c(O)cccc4F)c(F)cc32)C(C)C1 (single isomer, unassigned) [294 (Isomer A), 1-(1-acryloyl-3-methylpiperidin-4-yl)-7-fluoro-6-(2-fluoro-6-hydroxyphenyl)-4-(2-isopropyl-4-methylpyridin-3-yl)-1,4-dihydropyrido[2,3-b]pyrazine-2,3-dione] | ≥ 3000 | 
C=CC(=O)N1CCC(n2c(=O)c(=O)n(-c3c(C)ccnc3C(C)C)c3nc(-c4c(O)cccc4F)c(F)cc32)C(C)C1 (single isomer, unassigned) [294 (Isomer E), 1-(1-acryloyl-3-methylpiperidin-4-yl)-7-fluoro-6-(2-fluoro-6-hydroxyphenyl)-4-(2-isopropyl-4-methylpyridin-3-yl)-1,4-dihydropyrido[2,3-b]pyrazine-2,3-dione] | ≥ 3000 | 
C=CC(=O)N1CCC(n2c(=O)c(=O)n(-c3c(C)ccnc3C(C)C)c3nc(-c4c(O)cccc4F)c(F)cc32)C(C)C1 (single isomer, unassigned) [294 (Isomer F), 1-(1-acryloyl-3-methylpiperidin-4-yl)-7-fluoro-6-(2-fluoro-6-hydroxyphenyl)-4-(2-isopropyl-4-methylpyridin-3-yl)-1,4-dihydropyrido[2,3-b]pyrazine-2,3-dione] | 300 to 3000 | 
